Blank lines part the entries; values can stand above or below the molecule they belong to.
Experiments:
[1] = biological target: recombinant human α-IDUA (rh-α-IDUA, Aldurazyme®) (Homo sapiens (Human), UniProt P35475); assay: IDUA inhibition assay (fluorogenic substrate 4MU-IdoA); assay type: biochemical; details: for IC50: apparent IC50 against rh-α-IDUA, 4-MU-IdoA substrate, pH 3.5
Protocol: Compounds were mixed with recombinant human α-IDUA (rh-α-IDUA, Aldurazyme®, 1.2 nM as the final concentration) and the fluorogenic substrate, […] (4MU-IdoA; Cayman), at a final concentration of 100 μM in pH 3.5 buffer (50 mM NaOAc and 150 mM NaCl), then incubated in a 384-well microplate at 37° C. for 30 min. Stop solution (500 mM Na2CO3, pH 10.8) was added and fluorescence was read on a CLARIOstar® microplate reader (BMG LABTECH) at 355 nm excitation and 460 nm emission. Raw fluorescence counts were background subtracted, as defined by counts from substrate solution only. Inhibitory screening was performed and the active compounds were selected and further tested at lower concentration to determine their IC50 values and Ki values.
The compounds of Example 1 were evaluated on their inhibitory potential against rh-α-IDUA, and their apparent IC50 values were determined by using the fluorogenic substrates 4-methylumbelliferyl-α-iduronide (4-MU-IdoA) and results are shown in Table 1.

[2] = biological target: rh-α-IDUA in GM02846 fibroblasts (Homo sapiens (Human), UniProt P35475); assay: Cell-based rh-α-IDUA stabilization: IDUA activity in GM02846 fibroblasts; details: co-treatment with rh-α-IDUA
Sequence of rh-α-IDUA in GM02846 fibroblasts (P35475 26-653): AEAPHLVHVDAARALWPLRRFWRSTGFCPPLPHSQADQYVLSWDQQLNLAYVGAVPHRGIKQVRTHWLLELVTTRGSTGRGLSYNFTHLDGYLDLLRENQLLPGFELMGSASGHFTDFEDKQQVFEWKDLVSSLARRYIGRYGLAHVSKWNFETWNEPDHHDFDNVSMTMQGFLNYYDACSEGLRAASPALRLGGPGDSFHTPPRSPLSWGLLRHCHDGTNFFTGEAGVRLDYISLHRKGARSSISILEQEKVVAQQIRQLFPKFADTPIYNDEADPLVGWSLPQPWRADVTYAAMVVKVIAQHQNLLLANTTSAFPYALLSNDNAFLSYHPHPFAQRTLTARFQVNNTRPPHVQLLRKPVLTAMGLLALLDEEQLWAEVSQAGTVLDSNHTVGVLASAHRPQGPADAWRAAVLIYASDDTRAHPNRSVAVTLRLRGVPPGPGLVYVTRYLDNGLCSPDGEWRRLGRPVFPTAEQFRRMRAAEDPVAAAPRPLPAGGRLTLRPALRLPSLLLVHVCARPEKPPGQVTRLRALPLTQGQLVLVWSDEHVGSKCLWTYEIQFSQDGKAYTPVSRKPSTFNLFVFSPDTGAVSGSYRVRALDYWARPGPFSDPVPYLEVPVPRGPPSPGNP
Source text: (§1) FIG. 2. The cell-based rh-α-IDUA stabilization study of 12/rh-α-IDUA in GM02846 fibroblasts. (A) IDUA activity, and (B) the reduction of HS; Each bar represents the mean±SD of three determinations. *P<0.05; **P<0.01; ***P<0.001 compared to rh-α-IDUA alone, as determined by one-way ANOVA with Dunnett post-hoc analysis.
(§2) HS of the in situ treated fibroblasts were extracted and chemically cleaved to generate HS disaccharides as the released biomarker, which could be quantitatively measured via LC-MS/MS with a synthesized novel disaccharide by us as the internal standard. With this established method for cell-based HS analysis, the qualified CIdoA analogue 12 was further evaluated.

[3] = biological target: T1, rh-α-IDUA in GM01391 fibroblasts (Homo sapiens (Human), UniProt P35475); assay: Cell-based rh-α-IDUA stabilization: intracellular IDUA activity in GM01391 fibroblasts; details: for enhancement of IDUA activity versus rh-α-IDUA alone / change of IDUA activity on co-treatment versus rh-α-IDUA alone: rh-α-IDUA 0.1 nM + compound 100 μM (100 aM/100 M [sic] in the source)
T1 sequence (P35475 26-653): as above
Protocol: (§3) FIG. 1. The cell-based rh-α-IDUA stabilization study of the compounds of Example 1/rh-α-IDUA in GM01391 fibroblasts. (A) Preliminary cell-based screening of compounds of Example 1 by the co-treatment of rh-α-IDUA (0.1 nM) with 12 or 27b ([…]); (B) A dose-dependent experiment for 12, 27a, or 27b with 1 nM of rh-α-IDUA; (C) Co-treatment of 12 and rh-α-IDUA (1 or 0.1 nM) on IDUA activity; and (D) 12/rh-α-IDUA co-treatment on HS reduction in cells. Each bar represents the mean±SD of three determinations. *P<0.05; **P<0.01; ***P<0.001 compared to rh-α-IDUA alone, as determined by one-way ANOVA with Dunnett post-hoc analysis.
To this purpose, GM01391 fibroblasts were treated with a combination of rh-α-IDUA (0.1 nM) and compounds 12, and 27a-c ([…]); or with rh-α-IDUA for 1 day, followed by a 1-day wash-out. To measure the intracellular IDUA activity, the corresponding cells were harvested and lysed before the incubation with the fluorogenic substrate. Results are illustrated in FIG. 1.

[4] = biological target: T1, rh-α-IDUA in GM01391 fibroblasts; assay: as above; details: co-treatment with rh-α-IDUA; 1-day treatment followed by 8-day wash-out; data not shown
[5] = system: heparan sulfate (HS) in GM01391 fibroblasts; assay: Cell-based HS analysis (LC-MS/MS of HS disaccharides) in GM01391 fibroblasts; parameters: species or system human; details: co-treatment with rh-α-IDUA
Protocol: as §3
Generally, accumulation of GAGs could be observed in MPS patients due to the dysfunction of any lysosomal enzymes involved in the degradation of GAGs including IDUA associated with MPSI, which means the enhanced efficacy of protein drugs by the co-treatment with protein stabilizers could be evaluated more directly by the improved reduction of GAGs than the increased activity of MPS-related lysosomal enzymes. As a result, a robust method for quantitative detection of HS, one of the types of GAGs excessively stored in MPS I patients, was established by us for the evaluation of potential therapeutic effect of compound 12 in MPSI. […]

[6] = system: heparan sulfate (HS) in GM02846 fibroblasts; assay: Cell-based HS analysis (LC-MS/MS of HS disaccharides) in GM02846 fibroblasts; parameters: species or system human; details: combination with rh-α-IDUA
Source text: as §1
Generally, accumulation of GAGs could be observed in MPS patients due to the dysfunction of any lysosomal enzymes involved in the degradation of GAGs including IDUA associated with MPSI, which means the enhanced efficacy of protein drugs by the co-treatment with protein stabilizers could be evaluated more directly by the improved reduction of GAGs than the increased activity of MPS-related lysosomal enzymes. As a result, a robust method for quantitative detection of HS, one of the types of GAGs excessively stored in MPS I patients, was established by us for the evaluation of potential therapeutic effect of compound 12 in MPSI.
as §2

[7] = rh-α-IDUA 1 nM + compound 500 μM

Sequence of recombinant human α-IDUA (rh-α-IDUA, Aldurazyme®) (P35475 26-653): as above

- Ki ([1]; against rh-α-IDUA): 4 µM
- IC50 [1]: 6.7 µM
- rh-α-IDUA activity on co-treatment [2]: dose-dependently enhanced
- enhancement of IDUA activity versus rh-α-IDUA alone ([3]; 1 day, 1-day wash-out): 1.4 fold
- IDUA activity with combined treatment versus rh-α-IDUA alone [3, 7]: three
- time course of enhancement of IDUA activity [4]: could be maintained
Molecule: NCC[C@@H]1O[C@@H](C(=O)O)[C@@H](O)[C@H](O)[C@H]1O [Compound 12]
- IDUA activity, dose-dependence of co-treatment versus rh-α-IDUA alone ([3]; rh-α-IDUA 1 or 0.1 nM): enhanced by the 12/rh-α-IDUA co-treatment in a dose-dependent manner
- reduction of accumulated HS versus rh-α-IDUA alone [5]: statistically significantly improved reduction
- reduction of HS versus rh-α-IDUA alone [6]: significant reduction of HS

Molecule: NCC[C@@H]1N[C@@H](C(=O)O)[C@@H](O)[C@H](O)[C@H]1O [Compound 23]
- IC50 (μM), NI = no inhibition at 250 μM ([1]; 250 μM compound, rh-α-IDUA): NI^a (NI refers to less than 10% inhibition at 250 μM.)

- IC50 [1]: 5.4 ± 0.5 µM
- change of IDUA activity on co-treatment versus rh-α-IDUA alone ([3]; 1 day, 1-day wash-out): barely improved
- IDUA activity on co-treatment at 500 μM [3, 7]: suppressed
Molecule: O=C(Cc1ccc(OP(=O)(O)O)cc1)NCC[C@@H]1O[C@@H](C(=O)O)[C@@H](O)[C@H](O)[C@H]1O [Compound 27a]

- IC50 [1]: 4 ± 0.5 µM
- enhancement of IDUA activity versus rh-α-IDUA alone ([3]; 1 day, 1-day wash-out): 1.6 fold
- enhancement of IDUA activity at 500 μM [3, 7]: 1.7 fold
Molecule: O=C(Cc1cccc(OP(=O)(O)O)c1)NCC[C@@H]1O[C@@H](C(=O)O)[C@@H](O)[C@H](O)[C@H]1O [Compound 27b]

- IC50 [1]: 1 µM
- change of IDUA activity on co-treatment versus rh-α-IDUA alone ([3]; 1 day, 1-day wash-out): moderate reduction of IDUA activity
Molecule: O=C(Cc1ccccc1OP(=O)(O)O)NCC[C@@H]1O[C@@H](C(=O)O)[C@@H](O)[C@H](O)[C@H]1O [Compound 27c]

B1: rh-α-IDUA: recombinant human α-iduronidase, enzyme replacement protein (Aldurazyme®) (protein, UniProt P35475 28-653, looked up)
Alpha-L-iduronidase: APHLVHVDAARALWPLRRFWRSTGFCPPLPHSQADQYVLSWDQQLNLAYVGAVPHRGIKQVRTHWLLELVTTRGSTGRGLSYNFTHLDGYLDLLRENQLLPGFELMGSASGHFTDFEDKQQVFEWKDLVSSLARRYIGRYGLAHVSKWNFETWNEPDHHDFDNVSMTMQGFLNYYDACSEGLRAASPALRLGGPGDSFHTPPRSPLSWGLLRHCHDGTNFFTGEAGVRLDYISLHRKGARSSISILEQEKVVAQQIRQLFPKFADTPIYNDEADPLVGWSLPQPWRADVTYAAMVVKVIAQHQNLLLANTTSAFPYALLSNDNAFLSYHPHPFAQRTLTARFQVNNTRPPHVQLLRKPVLTAMGLLALLDEEQLWAEVSQAGTVLDSNHTVGVLASAHRPQGPADAWRAAVLIYASDDTRAHPNRSVAVTLRLRGVPPGPGLVYVTRYLDNGLCSPDGEWRRLGRPVFPTAEQFRRMRAAEDPVAAAPRPLPAGGRLTLRPALRLPSLLLVHVCARPEKPPGQVTRLRALPLTQGQLVLVWSDEHVGSKCLWTYEIQFSQDGKAYTPVSRKPSTFNLFVFSPDTGAVSGSYRVRALDYWARPGPFSDPVPYLEVPVPRGPPSPGNP
- IDUA activity after treatment with rh-α-IDUA alone ([3]; rh-α-IDUA 0.1 nM, 1 day, 1-day wash-out): dramatically increased

From US20250243227A1, “IDURONIDASE STABILIZERS AND USES THEREOF” (Academia Sinica, priority 2022, published 2025)
